Earlier results in patent publication US20070265345A1, “Novel Biphenyl Compounds And Their Use” (SMITHKLINE BEECHAM CORPORATION, priority 2004, published 2007).

Test system: A549 cells

GI50 [nM]	SMILES
500000	NC(=O)NO [hydroxyurea]
4	CC(=O)O[C@H]1C(=O)[C@@]2(C)[C@H]([C@H](OC(=O)c3ccccc3)[C@]3(O)C[C@H](OC(=O)[C@H](O)[C@@H](NC(=O)c4ccccc4)c4ccccc4)C(C)=C1C3(C)C)[C@]1(OC(C)=O)CO[C@@H]1C[C@@H]2O [paclitaxel]
63	COc1cccc2c1C(=O)c1c(O)c3c(c(O)c1C2=O)C[C@@](O)(C(=O)CO)C[C@@H]3O[C@H]1C[C@H](N)[C@H](O)[C@H](C)O1 [doxorubicin]
1000	O=c1[nH]cc(F)c(=O)[nH]1 [5-fluorouracil]
